Measurements as given in patent US20220387485A1, “METHODS OF TREATING CANCER WITH A COMBINATION OF A PLATINUM-BASED AGENT AND AN ANTI-TISSUE FACTOR ANTIBODY-DRUG CONJUGATE” (priority 2019, published 2022).

Columns and labels:
[1] = tested on: HuPrime® cervical xenograft model CV1248 [P3]; test: Cervical cancer PDX mouse model, tisotumab vedotin with carboplatin (Example 3); assay type: in vivo, BALB/c nude mice; conditions: for Tumor growth (FIGS. 3A and 3B): single agent, tisotumab vedotin 2 mg/kg, carboplatin 40 or 80 mg/kg, day 0, 7, 14 intravenous
Description: The in vivo anti-tumor efficacy of tisotumab vedotin in combination with carboplatin was evaluated in a patient-derived xenograft (PDX) mouse model in female BALB/c nude mice (Crown Bioscience [Taicang] Inc.). Xenografts were derived from tumor specimens from cancer patients. Tumor fragments were obtained from xenografts in serial passage in nude mice. Tumors were cut into fragments of 2-4 mm diameter and placed in phosphate-buffered saline (PBS) until subcutaneous implantation. A cervical cancer PDX model (HuPrime® cervical xenograft model CV1248 [P3]; Crown Bioscience Inc.) was used in this experiment. Tumor size was determined by caliper measurement at least two times a week and tumor volume was calculated as […]. When tumors reached an average volume of 150 mm^3, mice were randomized in 7 groups (10 mice per treatment group). The day of randomization was designated day 0. Mice were treated with the following by intravenous injections: 1) tisotumab vedotin alone at a dose level of 2 mg/kg, provided on day 0, day 7 and day 14; 2) carboplatin (Selleck Chemicals, cat. no. S121511) alone at a dose of 40 mg/kg or 80 mg/kg, provided on day 0, day 7 and day 14; 3) tisotumab vedotin at a dose level of 2 mg/kg, provided on day 0, day 7 and day 14 in combination with carboplatin at a dose of 40 mg/kg or 80 mg/kg, provided on day 0, day 7 and day 14; 4) IgG1 isotype control at a dose of 2 mg/kg provided on day 0, day 7 and day 14; or 5) IgG1-MMAE control at a dose of 2 mg/kg provided on day 0, day7 and day 14. […] Mice were housed in individually ventilated (IVC) cages, up to a maximum of five mice per cage and identified by ear tags. To determine whether there were statistically significant differences between tumor volumes in control and treatment groups, tumor volumes in the treatment groups were compared with those in the control group (e.g., treatment groups vs IgG1-MMAE control) and combination treatment groups were compared with groups treated with either of the compounds alone, using Mann-Whitney analysis at the last day that all groups were intact, i.e., day 20. For analysis of progression-free survival time (tumor size cut-off 750 mm^3), Mantel-Cox analysis was performed on Kaplan-Meier plots.

[2] = tested on: recurrent or metastatic squamous carcinoma of the uterine cervix; conditions: single agent, cited from earlier work
[3] = tested on: PD-L1-positive recurrent or metastatic cervical cancer (r/mCC); conditions: 2 L+; 42% of patients previously treated with bevacizumab; cited from earlier work
[4] = tested on: HuPrime® cervical xenograft model CV1248 [R4P5]; test: Cervical cancer PDX mouse model, tisotumab vedotin with cisplatin (Example 1); assay type: in vivo, BALB/c nude mice; conditions: single agent; for Tumor growth (FIG. 1A-C): tisotumab vedotin 2 mg/kg and 4 mg/kg day 0, 7, cisplatin 4 mg/kg day 0, 7, 14, intravenous; for Survival (FIGS. 1D and 1E): tisotumab vedotin 2 mg/kg and 4 mg/kg, cisplatin 4 mg/kg, tumor size cut-off 1000 mm^3
Description: The in vivo anti-tumor efficacy of tisotumab vedotin in combination with cisplatin was evaluated in a patient-derived xenograft (PDX) mouse model in BALB/c nude mice (Crown Bioscience Inc.). Xenografts were derived from tumor specimens from cancer patients. Establishment and characterization of the PDX model was performed following primary implantation into nude mice. Tumor xenografts were passaged approximately three to five times until establishment of stable growth patterns. Tumor fragments were obtained from xenografts in serial passage in nude mice. Tumors were cut into fragments of 2-3 mm diameter and placed in phosphate-buffered saline (PBS) until subcutaneous implantation. A cervical cancer PDX model (HuPrime® cervical xenograft model CV1248 [R4P5]; Crown Bioscience Inc.) was used in this experiment. Tumor size was determined by caliper measurement at least two times a week and tumor volume was calculated as 0.5×length×width. When tumors reached the volume of 200 mm^3, mice were randomized in 11 groups (7-8 mice per treatment group). Mice were treated with the following by intravenous injections: 1) tisotumab vedotin alone at a dose level of 0.5 mg/kg, 1 mg/kg, 2 mg/kg or 4 mg/kg provided on day 0 and day 7 of treatment; 2) cisplatin alone at a dose of 4 mg/kg provided on day 0, day 7 and day 14 of treatment; 3) tisotumab vedotin at a dose level of 0.5 mg/kg, 1 mg/kg, 2 mg/kg or 4 mg/kg provided on day 0 and day 7 of treatment in combination with cisplatin at a dose of 4 mg/kg provided on day 0, day 7 and day 14 of treatment; 4) IgG1 isotype control at a dose of 4 mg/kg provided on day 0 and day 7 of treatment; or 5) IgG1-MMAE control at a dose of 4 mg/kg provided on day 0 and day 7 of treatment. […] Mice were housed in individually ventilated (IVC) cages, four or five mice per cage and identified by ear tags.
To determine whether there were statistically significant differences between tumor volumes in control and treatment groups, tumor volumes in the treatment groups were compared with those in the control group (e.g., treatment groups vs IgG1-MMAE control) using Mann-Whitney analysis at the last day that all groups were intact, i.e., day 38. For survival analysis (tumor volume cut-off was 1,000 mm^3). Mantel-Cox analysis was performed on Kaplan-Meier plots with a cut-off set at tumor volume >1,000 mm^3.

[5] = tested on: bladder xenograft model BXF1036; test: Bladder cancer PDX mouse model, tisotumab vedotin with cisplatin (Example 2); assay type: in vivo, Crl:NMRI-Foxn1^nu nude mice; conditions: single agent; for Tumor growth (FIG. 2A-C): tisotumab vedotin 0.5 mg/kg day 1 intravenously, cisplatin 2 mg/kg day 1 and 8 subcutaneously; for Survival (FIG. 2D): tisotumab vedotin 0.5 mg/kg, cisplatin 2 mg/kg, tumor size cut-off 500 mm^3
Description: The in vivo anti-tumor efficacy of tisotumab vedotin in combination with cisplatin was evaluated in A PDX mouse model in female Crl:NMRI-Foxn1^nu (Envigo RMS SARL, France) nude mice (Charles River Discovery Research Services). Xenografts were derived from tumor specimens from cancer patients. Establishment and characterization of the PDX model was performed following primary implantation into nude mice. Tumor xenografts were passaged approximately three to five times until establishment of stable growth patterns. Tumor fragments were obtained from xenografts in serial passage in nude mice. Tumors were cut into fragments of 3-4 mm diameter and placed in phosphate-buffered saline (PBS) until subcutaneous implantation. A bladder cancer PDX model (bladder xenograft model BXF1036; Charles River Discovery Research Services) was used in this experiment. Tumor size was determined by caliper measurement at least two times a week and tumor volume was calculated as 0.52×length×width. When tumors reached the volume of 50-250 mm^3, mice were randomized in 5 groups (10 mice per treatment group). Mice were treated with the following: 1) tisotumab vedotin alone at a dose level of 0.5 mg/kg provided on day 1 of treatment; 2) cisplatin alone at a dose of 2 mg/kg provided on day 1 and day 8 of treatment; 3) tisotumab vedotin at a dose level of 0.5 mg/kg provided on day 1 of treatment in combination with cisplatin at a dose of 2 mg/kg provided on day 1 and day 8 of treatment; 4) IgG1 isotype control at a dose of 0.5 mg/kg provided on day 1 of treatment; or 5) IgG1-MMAE control at a dose of 0.5 mg/kg provided on day 1 of treatment. IgG1 isotype control, IgG1-MMAE control and tisotumab vedotin were each in PBS and injected intravenously. Cisplatin was in 0.9% NaCl and injected subcutaneously. […] Mice were housed in individually ventilated (IVC) cages, with a maximum of five mice per cage, and identified by ear tags.
To determine whether there were statistically significant differences between tumor volumes in control and treatment groups, tumor volumes in the treatment groups were compared with those in the control groups (e.g., IgG1-MMAE control, tisotumab vedotin alone or cisplatin alone) using Mann-Whitney analysis at the last day that all groups were intact, i.e., day 25. Statistical analysis of the difference between groups treated with tisotumab vedotin in combination with cisplatin and groups treated with either tisotumab vedotin alone or cisplatin alone was performed on day 32.
Tumor progression was plotted in a Kaplan-Meier plot, with a cut-off set at a tumor volume >500 mm^3. […]

[6] = tested on: relapsed, recurrent, and/or metastatic cervical cancer; conditions: cited from earlier work
[7] = tested on: stage IVB, recurrent, or persistent squamous cell carcinoma of the cervix; conditions: cited from earlier work

N.N.O=C([O-])C1(C(=O)[O-])CCC1.[Pt+2] [Carboplatin, carboplatin]
Average tumor volume Mann-Whitney Day 20 P value ([1]; carboplatin 40 mg/kg vs IgG1-MMAE): 0.5787 | Average tumor volume Mann-Whitney Day 20 P value ([1]; carboplatin 80 mg/kg vs IgG1-MMAE): 0.1716 | Tumor growth (FIGS. 3A and 3B) [1]: did not inhibit tumor growth | overall response rate ([2]; 6/41): 15% | major toxic effects: anemia [2]: 47% | major toxic effects: leukopenia [2]: 38% | major toxic effects: nausea and vomiting [2]: 48% | major toxic effects: thrombocytopenia [2]: 22%

pembrolizumab
objective response rate (ORR) [3]: 14%

Tisotumab vedotin
Tumor growth (FIG. 1A-C) [4]: efficiently inhibited tumor growth | Survival (FIGS. 1D and 1E) [4]: prolonged survival | Tumor growth (FIG. 2A-C) [5]: efficiently inhibited tumor growth | Survival (FIG. 2D) [5]: prolonged survival | Tumor growth (FIGS. 3A and 3B) [1]: efficiently inhibited tumor growth | Average tumor volume Mann-Whitney Day 20 P value ([1]; tisotumab vedotin 2 mg/kg vs IgG1-MMAE): 0.0068 | AEs of grade 1-2 conjunctivitis ([6]; in vivo): frequently reported | Clinically relevant perturbations in activated partial thromboplastin time (aPTT) or prothrombin time (PT) ([6]; in vivo): have not been observed | Epistaxis, frequency among bleeding AEs ([6]; in vivo): most common reported AE | Epistaxis, severity ([6]; in vivo): nearly all of the cases are grade 1 | Peripheral neuropathy, grade of the majority of the reported cases ([6]; in vivo): grade 1-2 | Peripheral neuropathy, share of subjects ([6]; subjects who received treatment with tisotumab vedotin): approximately 35%

N.N.[Cl][Pt][Cl] [Cisplatin]
Tumor growth (FIG. 1A-C) [4]: inhibited tumor growth | Survival (FIGS. 1D and 1E) [4]: prolonged survival | median PFS ([7]; P<0.001 between arms): 2.8 months | Objective responses (OR) ([7]; P=0.002 between arms): 19% | median survival ([7]; at the time of data cutoff, no difference): 8.8 months | Objective responses: complete ([7]; in vivo): 6% | Objective responses: partial ([7]; in vivo): 13% | Tumor growth (FIG. 2A-C) [5]: inhibited tumor growth | Survival (FIG. 2D) [5]: prolonged survival
